Counter-ions that a name gives are not always drawn.
Molecular target: T1, p-glycoprotein (Homo sapiens, UniProt P08183)
T1 construct: Multidrug-resistant and -sensitive cells of the T-lymphoblastoid leukemia cell lines CCRF-VCR 1000 and CCRF-CEM are withdrawn from the cell culture; endogenous in cells; host or cells: CCRF-VCR 1000 (multidrug-resistant); CCRF-CEM (sensitive)
Experiment: Measurement of P-glycoprotein inhibition (Rhodamine 123 accumulation)
Assay type: cell-based
Experimental: Multidrug-resistant and -sensitive cells of the T-lymphoblastoid leukemia cell lines CCRF-VCR 1000 and CCRF-CEM are withdrawn from the cell culture and harvested by centrifugation. The cells are taken up in RPMI medium (pH=7.3) without fetal calf serum and incubated at 37° C. for 30 min with the rising concentrations of resistance modulators. […] The excitation wavelength is 488 nm.
The number of the investigated compounds correspond to the numbers in the examples.

T1 sequence (P08183 whole entry): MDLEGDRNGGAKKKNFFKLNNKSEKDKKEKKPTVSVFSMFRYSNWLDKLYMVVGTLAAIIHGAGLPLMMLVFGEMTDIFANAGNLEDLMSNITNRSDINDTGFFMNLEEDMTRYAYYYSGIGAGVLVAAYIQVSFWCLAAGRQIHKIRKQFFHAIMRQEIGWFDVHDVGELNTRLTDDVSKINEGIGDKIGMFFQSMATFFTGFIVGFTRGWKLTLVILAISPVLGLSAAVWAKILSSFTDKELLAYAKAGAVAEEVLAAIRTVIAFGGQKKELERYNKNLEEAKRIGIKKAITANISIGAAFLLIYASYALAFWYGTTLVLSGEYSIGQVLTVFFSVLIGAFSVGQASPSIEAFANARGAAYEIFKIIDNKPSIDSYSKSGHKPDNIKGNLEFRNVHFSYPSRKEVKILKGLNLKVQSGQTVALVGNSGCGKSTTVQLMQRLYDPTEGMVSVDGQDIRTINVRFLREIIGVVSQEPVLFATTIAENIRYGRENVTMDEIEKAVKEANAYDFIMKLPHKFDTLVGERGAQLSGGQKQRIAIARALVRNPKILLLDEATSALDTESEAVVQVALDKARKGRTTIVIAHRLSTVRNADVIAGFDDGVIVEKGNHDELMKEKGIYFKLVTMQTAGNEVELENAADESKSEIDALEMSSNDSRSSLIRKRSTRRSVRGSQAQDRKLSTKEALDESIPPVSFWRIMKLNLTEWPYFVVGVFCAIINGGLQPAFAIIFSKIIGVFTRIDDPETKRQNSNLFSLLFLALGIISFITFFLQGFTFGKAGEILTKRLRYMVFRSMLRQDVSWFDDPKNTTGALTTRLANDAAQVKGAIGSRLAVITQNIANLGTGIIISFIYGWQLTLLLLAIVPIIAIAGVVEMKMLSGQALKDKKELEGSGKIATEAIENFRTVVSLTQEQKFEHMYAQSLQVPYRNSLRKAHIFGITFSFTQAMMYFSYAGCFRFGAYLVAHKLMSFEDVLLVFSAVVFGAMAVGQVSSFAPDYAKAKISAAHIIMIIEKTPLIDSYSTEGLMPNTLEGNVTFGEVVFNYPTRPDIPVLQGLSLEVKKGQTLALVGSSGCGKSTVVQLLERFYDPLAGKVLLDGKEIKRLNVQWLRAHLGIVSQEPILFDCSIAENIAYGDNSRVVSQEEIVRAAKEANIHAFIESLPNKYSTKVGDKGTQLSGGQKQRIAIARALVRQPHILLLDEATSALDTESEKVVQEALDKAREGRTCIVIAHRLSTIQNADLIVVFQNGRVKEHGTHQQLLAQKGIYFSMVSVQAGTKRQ

Structure (SMILES) | EC50 [nM] | pEC50 (CCRF-VCR 1000 and CCRF-CEM cells, Rhodamine 123 0.8 mg/l, 30 min preincubation, 1 h at 37° C., RPMI without fetal calf serum, pH 7.3)
CCCCn1cnc2nc(C)c(C(=O)CCCCCCCN3CCC(c4ccccc4)(c4ccccc4)CC3)c(-c3cccc([N+](=O)[O-])c3)c2c1=O [Compound 21] | 50.1 | 
Cc1nc2nc(C)n(-c3ccccc3)c(=O)c2c(-c2cccc([N+](=O)[O-])c2)c1C(=O)CCCCCCCCCCN1CCC(c2ccccc2)(c2ccccc2)CC1 [Compound 2, 3,4-Dihydro-2,7-dimethyl-5-(3-nitrophenyl)-4-oxo-3-phenyl-6-[1-oxo-11-(4,4-diphenyl-1-piperidinyl)undecyl]pyrido[2,3-d]pyrimidine hydrochloride] | 63.1 | 
COc1ccc(-n2cnc3nc(C)c(C(=O)CCCCCCCCCCN4CCC(c5ccccc5)(c5ccccc5)CC4)c(-c4cccc([N+](=O)[O-])c4)c3c2=O)cc1 [Compound 11] | 39.8 | 
Cc1nc2nc(C)n(CCN3CCCCC3)c(=O)c2c(-c2cccc([N+](=O)[O-])c2)c1C(=O)CCCCCCCCCCN1CCC(c2ccccc2)(c2ccccc2)CC1 [Compound 16] | 79.4 | 
Cc1nc2nc(C)n(CCN3CCOCC3)c(=O)c2c(-c2cccc([N+](=O)[O-])c2)c1C(=O)CCCCCCCN1CCC(c2ccccc2)(c2ccccc2)CC1 [Compound 5] |  | 6.8
Cc1nc2ncn(-c3ccccc3)c(=O)c2c(-c2cccc([N+](=O)[O-])c2)c1C(=O)CCCCCCCCCCN1CCC(c2ccccc2)(c2ccccc2)CC1 [Compound 9] | 63.1 | 
Cc1nc2ncn(CCCN3CCOCC3)c(=O)c2c(-c2cccc([N+](=O)[O-])c2)c1C(=O)CCCCCCCCCCN1CCC(c2ccccc2)(c2ccccc2)CC1 [Compound 17] | 25.1 | 
CCCn1cnc2nc(C)c(C(=O)CCCCCCCCCCN3CCC(c4ccccc4)(c4ccccc4)CC3)c(-c3cccc([N+](=O)[O-])c3)c2c1=O [Compound 7] | 50.1 | 
CCCCCn1c(C)nc2nc(C)c(C(=O)CCCCCCCN3CCC(c4ccccc4)(c4ccccc4)CC3)c(-c3cccc([N+](=O)[O-])c3)c2c1=O [Compound 14] | 79.4 | 
CCCn1cnc2nc(C)c(C(=O)CCCCCCCN3CCC(c4ccccc4)(c4ccccc4)CC3)c(-c3cccc([N+](=O)[O-])c3)c2c1=O [Compound 3] | 25.1 | 
Cc1nc2ncn(Cc3ccccc3)c(=O)c2c(-c2cccc([N+](=O)[O-])c2)c1C(=O)CCCCCCCCCCN1CCC(c2ccccc2)(c2ccccc2)CC1 [Compound 10] | 25.1 | 
Cc1nc2nc(C)n(CCN3CCCCC3)c(=O)c2c(-c2cccc([N+](=O)[O-])c2)c1C(=O)CCCCCCCN1CCC(c2ccccc2)(c2ccccc2)CC1 [Compound 18] | 50.1 | 
Cc1nc2ncn(CCN3CCOCC3)c(=O)c2c(-c2cccc([N+](=O)[O-])c2)c1C(=O)CCCCCCCCCCN1CCC(c2ccccc2)(c2ccccc2)CC1 [Compound 12] | 25.1 | 
CCCCn1cnc2nc(C)c(C(=O)CCCCCCCCCCN3CCC(c4ccccc4)(c4ccccc4)CC3)c(-c3cccc([N+](=O)[O-])c3)c2c1=O [Compound 6] | 15.8 | 
CCCCn1c(C)nc2nc(C)c(C(=O)CCCCN3CCC(c4ccccc4)(c4ccccc4)CC3)c(-c3cccc([N+](=O)[O-])c3)c2c1=O [Compound 19] | 100 | 
CCCCCn1cnc2nc(C)c(C(=O)CCCCCCCN3CCC(c4ccccc4)(c4ccccc4)CC3)c(-c3cccc([N+](=O)[O-])c3)c2c1=O [Compound 4] | 20 | 
CCCCn1c(C)nc2nc(C)c(C(=O)CCCCCCCN3CCC(c4ccccc4)(c4ccccc4)CC3)c(-c3cccc([N+](=O)[O-])c3)c2c1=O [Compound 20] | 31.6 | 
CCCn1c(C)nc2nc(C)c(C(=O)CCCCCCCN3CCC(c4ccccc4)(c4ccccc4)CC3)c(-c3cccc([N+](=O)[O-])c3)c2c1=O [Compound 13] | 50.1 | 
Cc1nc2nc(C)n(CCCN3CCOCC3)c(=O)c2c(-c2cccc([N+](=O)[O-])c2)c1C(=O)CCCCCCCCCCN1CCC(c2ccccc2)(c2ccccc2)CC1 [Compound 15] | 31.6 | 
CCCCCn1cnc2nc(C)c(C(=O)CCCCCCCCCCN3CCC(c4ccccc4)(c4ccccc4)CC3)c(-c3cccc([N+](=O)[O-])c3)c2c1=O [Compound 8] | 31.6 | 
Cc1nc2nc(C)n(Cc3ccccc3)c(=O)c2c(-c2cccc([N+](=O)[O-])c2)c1C(=O)CCCCCCCN1CCC(c2ccccc2)(c2ccccc2)CC1 [Compound 23] | 50.1 | 
Cc1nc2ncn(Cc3ccccc3)c(=O)c2c(-c2cccc([N+](=O)[O-])c2)c1C(=O)CCCCCCCN1CCC(c2ccccc2)(c2ccccc2)CC1 [Compound 22] | 39.8 | 
Cc1nc2nc(C)n(CCN3CCOCC3)c(=O)c2c(-c2cccc([N+](=O)[O-])c2)c1C(=O)CCCCCCCCCCN1CCC(c2ccccc2)(c2ccccc2)CC1 [Compound 1, 3,4-Dihydro-2,7-dimethyl-3-[2-(4-morpholinyl)ethyl]-5-3-nitrophenyl)-4-oxo-6-[1-oxo-11-(4,4-diphenyl-1-piperidinyl)undecyl]-pyrido[2,3-d]pyrimidine dihydrochloride] | 25.1 | 
